ChEMBL document CHEMBL1201862, “PubChem BioAssay data set” (2004)
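Step 1: Grow cells in 96-well plates. Step 2: Expose to compound for 48 hours at 5 concentrations. Step 3: Interpolate endpoints linearly; if unreached, use highest concentration. GI50 = concentration required for 50% inhibition of growth.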 Active and inactive are the calls of the source. Rule as the data show it: active = GI50 up to about 1.1 µM and inactive = higher.

Assays:
Test in all cases: NCI tumour cell line growth inhibition, 48 h
786-0 = test system: 786-0
A498 = test system: A498
A549 = test system: A549
ACHN = test system: ACHN
BT-549 = test system: BT-549
CAKI-1 = test system: CAKI-1
CCRF-CEM = test system: CCRF-CEM
COLO 205 = test system: COLO 205
DU-145 = test system: DU-145
EKVX = test system: EKVX
HCC 2998 = test system: HCC 2998
HCT-116 = test system: HCT-116
HCT-15 = test system: HCT-15
HL-60 = test system: HL-60
HOP-62 = test system: HOP-62
HOP-92 = test system: HOP-92
HT-29 = test system: HT-29
Hs-578T = test system: Hs-578T
IGROV-1 = test system: IGROV-1
K562 = test system: K562
KM12 = test system: KM12
LOX IMVI = test system: LOX IMVI
M14 = test system: M14
MCF7 = test system: MCF7
MDA-MB-231 = test system: MDA-MB-231
MDA-MB-435 = test system: MDA-MB-435
MDA-N = test system: MDA-N
MOLT-4 = test system: MOLT-4
Malme-3M = test system: Malme-3M
NCI-H226 = test system: NCI-H226
NCI-H23 = test system: NCI-H23
NCI-H460 = test system: NCI-H460
NCI-H522 = test system: NCI-H522
NCI/ADR-RES = test system: NCI/ADR-RES
OVCAR-3 = test system: OVCAR-3
OVCAR-4 = test system: OVCAR-4
OVCAR-5 = test system: OVCAR-5
OVCAR-8 = test system: OVCAR-8
PC-3 = test system: PC-3
RPMI-8226 = test system: RPMI-8226
RXF 393 = test system: RXF 393
SF-268 = test system: SF-268
SF-295 = test system: SF-295
SF-539 = test system: SF-539
SK-MEL-28 = test system: SK-MEL-28
SK-MEL-2 = test system: SK-MEL-2
SK-MEL-5 = test system: SK-MEL-5
SK-OV-3 = test system: SK-OV-3
SN12C = test system: SN12C
SNB-19 = test system: SNB-19
SNB-75 = test system: SNB-75
SR = test system: SR
SW-620 = test system: SW-620
T47D = test system: T47D
TK-10 = test system: TK-10
U-251 = test system: U-251
UACC-257 = test system: UACC-257
UACC-62 = test system: UACC-62
UO-31 = test system: UO-31

SMILES: CCOP(=O)(OCC)c1c(C(=O)OC)cc(=O)[nH]c1-c1ccc(C)cc1
- GI50 (786-0): 20.6 µM (inactive)
- GI50 (A498): 22 µM (inactive)
- GI50 (A549): 15.2 µM (inactive)
- GI50 (ACHN): 3.17 µM (inactive)
- GI50 (BT-549): 7.71 µM (inactive)
- GI50 (CAKI-1): 5.46 µM (inactive)
- GI50 (CCRF-CEM): 2.02 µM (inactive)
- GI50 (COLO 205): 6.5 µM (inactive)
- GI50 (DU-145): 12.9 µM (inactive)
- GI50 (EKVX): 3.73 µM (inactive)
- GI50 (HCC 2998): 18.1 µM (inactive)
- GI50 (HCT-116): 13.8 µM (inactive)
- GI50 (HCT-15): 9.73 µM
- GI50 (HL-60): 1.23 µM (inactive)
- GI50 (HOP-62): 18.5 µM (inactive)
- GI50 (HOP-92): 2.75 µM (inactive)
- GI50 (HT-29): 14.4 µM (inactive)
- GI50 (Hs-578T): 17.9 µM (inactive)
- GI50 (IGROV-1): 6.43 µM (inactive)
- GI50 (K562): 10.4 µM (inactive)
- GI50 (KM12): 16 µM (inactive)
- GI50 (LOX IMVI): 17.7 µM (inactive)
- GI50 (M14): 11.6 µM (inactive)
- GI50 (MCF7): 13.4 µM (inactive)
- GI50 (MDA-MB-231): 25.1 µM (inactive)
- GI50 (MDA-MB-435): 18.5 µM (inactive)
- GI50 (MDA-N): 24.8 µM (inactive)
- GI50 (MOLT-4): 4.57 µM (inactive)
- GI50 (Malme-3M): 6.1 µM (inactive)
- GI50 (NCI-H226): 9.31 µM (inactive)
- GI50 (NCI-H23): 16.9 µM (inactive)
- GI50 (NCI-H460): 19.1 µM (inactive)
- GI50 (NCI-H522): 0.968 µM (active)
- GI50 (NCI/ADR-RES): 19.5 µM (inactive)
- GI50 (OVCAR-3): 11.1 µM (inactive)
- GI50 (OVCAR-4): 8.2 µM (inactive)
- GI50 (OVCAR-5): 5.64 µM (inactive)
- GI50 (OVCAR-8): 17.7 µM (inactive)
- GI50 (PC-3): 16.7 µM (inactive)
- GI50 (RPMI-8226): 5.27 µM (inactive)
- GI50 (RXF 393): 12.5 µM (inactive)
- GI50 (SF-268): 19.4 µM (inactive)
- GI50 (SF-295): 19.8 µM (inactive)
- GI50 (SF-539): 7.87 µM (inactive)
- GI50 (SK-MEL-28): 18.5 µM (inactive)
- GI50 (SK-MEL-2): 15.7 µM (inactive)
- GI50 (SK-MEL-5): 13.3 µM (inactive)
- GI50 (SK-OV-3): 22.8 µM (inactive)
- GI50 (SN12C): 22.4 µM (inactive)
- GI50 (SNB-19): 21.6 µM (inactive)
- GI50 (SNB-75): 12.8 µM (inactive)
- GI50 (SR): 3.03 µM (inactive)
- GI50 (SW-620): 5.75 µM (inactive)
- GI50 (T47D): 2.58 µM (inactive)
- GI50 (TK-10): 14.4 µM (inactive)
- GI50 (U-251): 13.1 µM (inactive)
- GI50 (UACC-257): 15.6 µM (inactive)
- GI50 (UACC-62): 7.01 µM (inactive)
- GI50 (UO-31): 4.05 µM (inactive)

SMILES: N=c1c2c(=S)n(-c3ccccc3)c(=S)n(-c3ccccc3)c2nc(SCCN2CCOCC2)n1-c1ccccc1
- GI50 (786-0): 1.76 µM (inactive)
- GI50 (A498): 3.52 µM (inactive)
- GI50 (A549): 1.78 µM (inactive)
- GI50 (ACHN): 1.87 µM (inactive)
- GI50 (BT-549): 1.98 µM (inactive)
- GI50 (CAKI-1): 1.94 µM (inactive)
- GI50 (CCRF-CEM): 1.38 µM (inactive)
- GI50 (COLO 205): 1.99 µM (inactive)
- GI50 (DU-145): 1.83 µM (inactive)
- GI50 (EKVX): 3.16 µM (inactive)
- GI50 (HCC 2998): 1.77 µM (inactive)
- GI50 (HCT-116): 1.85 µM (inactive)
- GI50 (HCT-15): 1.91 µM
- GI50 (HL-60): 1.41 µM (inactive)
- GI50 (HOP-62): 2.12 µM (inactive)
- GI50 (HOP-92): 1.82 µM (inactive)
- GI50 (HT-29): 2.05 µM (inactive)
- GI50 (Hs-578T): 2.67 µM (inactive)
- GI50 (IGROV-1): 1.76 µM (inactive)
- GI50 (K562): 1.47 µM (inactive)
- GI50 (KM12): 2.44 µM (inactive)
- GI50 (LOX IMVI): 1.71 µM (inactive)
- GI50 (M14): 1.93 µM (inactive)
- GI50 (MCF7): 1.35 µM (inactive)
- GI50 (MDA-MB-231): 2.12 µM (inactive)
- GI50 (MDA-MB-435): 1.82 µM (inactive)
- GI50 (MDA-N): 2.26 µM (inactive)
- GI50 (MOLT-4): 1.46 µM (inactive)
- GI50 (Malme-3M): 1.66 µM (inactive)
- GI50 (NCI-H226): 7.13 µM (inactive)
- GI50 (NCI-H23): 2.67 µM (inactive)
- GI50 (NCI-H460): 2.49 µM (inactive)
- GI50 (NCI-H522): 1.67 µM (inactive)
- GI50 (NCI/ADR-RES): 3.67 µM (inactive)
- GI50 (OVCAR-3): 1.8 µM (inactive)
- GI50 (OVCAR-4): 1.76 µM (inactive)
- GI50 (OVCAR-5): 18.4 µM (inactive)
- GI50 (OVCAR-8): 2.06 µM (inactive)
- GI50 (PC-3): 1.85 µM (inactive)
- GI50 (RPMI-8226): 1.04 µM (active)
- GI50 (RXF 393): 1.79 µM (inactive)
- GI50 (SF-268): 1.79 µM (inactive)
- GI50 (SF-295): 7.19 µM (inactive)
- GI50 (SF-539): 3.83 µM (inactive)
- GI50 (SK-MEL-28): 2.1 µM (inactive)
- GI50 (SK-MEL-2): 2.86 µM (inactive)
- GI50 (SK-MEL-5): 2.73 µM (inactive)
- GI50 (SK-OV-3): 6.1 µM (inactive)
- GI50 (SN12C): 2.06 µM (inactive)
- GI50 (SNB-19): 10.4 µM (inactive)
- GI50 (SNB-75): 2.07 µM (inactive)
- GI50 (SR): 0.475 µM (active)
- GI50 (SW-620): 1.91 µM (inactive)
- GI50 (T47D): 2.69 µM (inactive)
- GI50 (TK-10): 1.71 µM (inactive)
- GI50 (U-251): 1.99 µM (inactive)
- GI50 (UACC-257): 2.11 µM (inactive)
- GI50 (UACC-62): 1.81 µM (inactive)
